Usually MIC stands for the lowest concentration found to suppress growth. Lower therefore signals inhibition by little substance.

Ends that are not written are not given here.

The test system of test [1] is Enterobacter cloacae OC4080. In kind it is cell-based. On the procedure:
(§1) MICs were determined by using the broth microdilution method based on the general recommendations of the Clinical and Laboratory Standards Institute (CLSI). Bacteria were grown in CAMHB overnight. They were then diluted into fresh medium the following morning and grown to early log phase. The cultures were then diluted to approximately 5 × 10^5 CFU ml^−1, and 100 μl was added to sterile 96-well polypropylene microtiter plates (Corning, NY, USA) preloaded with twofold dilutions of antimicrobial peptides. […] All MIC assays were determined from at least three independent assays.

For test [2], the system named is Enterobacter cloacae OC4092. In kind it is cell-based. As to the method: as §1
The test system of test [3] is Escherichia coli ATCC 25922. In kind it is cell-based. On the procedure: as §1
In test [4] the test system is Escherichia coli ATCC 35218. In kind it is cell-based. On the procedure:
as §1

Another test deals with Escherichia coli MC4100a. In kind it is cell-based. As to the method:
as §1

The next test has as its system Escherichia coli OC4075. In kind it is cell-based. On the procedure: as §1
The next test deals with Escherichia coli UTI89. In kind it is cell-based. As to the method:
as §1

The test system of test [5] is Klebsiella pneumoniae 262 (NDM1+). In kind it is cell-based. As to the method:
as §1

Test [6] deals with Klebsiella pneumoniae 88 (NDM1+). In kind it is cell-based. On the procedure:
as §1

Test [7] concerns Klebsiella pneumoniae ATCC 700603. In kind it is cell-based. On the procedure: as §1
The subject of a further test is Klebsiella pneumoniae C2. In kind it is cell-based. On the procedure: as §1
For test [8], the system named is Klebsiella pneumoniae OC4110. In kind it is cell-based. On the procedure: as §1
The test system of test [9] is Klebsiella pneumoniae OC8893. In kind it is cell-based. On the procedure: as §1
Test [10] has as its system Pseudomonas aeruginosa ATCC 27853. In kind it is cell-based. As to the method: as §1
Test [11] has as its system Pseudomonas aeruginosa OC4083. In kind it is cell-based. As to the method: as §1
Test [12] relates to Pseudomonas aeruginosa PAO1. In kind it is cell-based. On the procedure: as §1
For a further test, the system named is Gram-positive bacteria. The conditions noted are these: cited from earlier work. From the text: The human cathelicidin LL-37 has important roles in modulating inflammatory responses. […] Perhaps because they are released in response to bacterial infection and tissue injuries, LL-37 and other cathelicidins can promote wound healing and reduce fibrosis ([8][–][10]). All of these desirable activities have generated significant interest in developing cathelicidins to treat bacterial infection and injuries, however, c ...

Take “GRFKRFRKKLKKLFKKLSPVIPLLHLG [BMAP-27B, reference compound]”: the minimal inhibitory concentration (MIC) (in [1]; in test [2]; in test [3]; in [4]; with Escherichia coli MC4100a; against Escherichia coli OC4075) was 4 µM in each case. For the same sequence, the MIC in the test on Escherichia coli UTI89 is 4 µM; in [5] it was 4 µM; in test [6], 4 µM; in [7], 4 µM; against Klebsiella pneumoniae C2, 4 µM; in [8], 8 µM. In addition, the MIC in [9] is 8 µM; in test [10], 4 µM; in test [11] it was 4 µM; in test [12], 4 µM. For the same sequence, the “Fold-higher concentration needed to reach the MICs for Gram-positive bacteria” value with Gram-positive bacteria is “ca. 10 fold”.

Values taken from paper PMC6737244, “Cathelicidin Peptides Restrict Bacterial Growth via Membrane Perturbation and Induction of Reactive Oxygen Species” (mBio, 2019).
